Tests used:
[1] = target: T1, active smFRET construct of hDPP III (still containing residue Glu-451) (Homo sapiens, UniProt Q9NY33, C19S/C519S/C654S/E207C/S491C); assay: Fluorometric activity assay, release of β-naphthylamine, active smFRET construct; type: biochemical; settings: active smFRET construct 50 pM; substrate 1 μM to 200 μM; 37 °C, 50 mM Tris-HCl pH 8.0, 100 mM NaCl; fluorescence ex 320 nm, em 420 nm
T1 construct: His6-tag with TEV protease cleavage site (N, cleaved yes); made in house; host or cells: E. coli BL21-CodonPlus (DE3) RIL
T1 sequence (Q9NY33 1-726 C19S/E207C/S491C/C519S/C654S limits assumed): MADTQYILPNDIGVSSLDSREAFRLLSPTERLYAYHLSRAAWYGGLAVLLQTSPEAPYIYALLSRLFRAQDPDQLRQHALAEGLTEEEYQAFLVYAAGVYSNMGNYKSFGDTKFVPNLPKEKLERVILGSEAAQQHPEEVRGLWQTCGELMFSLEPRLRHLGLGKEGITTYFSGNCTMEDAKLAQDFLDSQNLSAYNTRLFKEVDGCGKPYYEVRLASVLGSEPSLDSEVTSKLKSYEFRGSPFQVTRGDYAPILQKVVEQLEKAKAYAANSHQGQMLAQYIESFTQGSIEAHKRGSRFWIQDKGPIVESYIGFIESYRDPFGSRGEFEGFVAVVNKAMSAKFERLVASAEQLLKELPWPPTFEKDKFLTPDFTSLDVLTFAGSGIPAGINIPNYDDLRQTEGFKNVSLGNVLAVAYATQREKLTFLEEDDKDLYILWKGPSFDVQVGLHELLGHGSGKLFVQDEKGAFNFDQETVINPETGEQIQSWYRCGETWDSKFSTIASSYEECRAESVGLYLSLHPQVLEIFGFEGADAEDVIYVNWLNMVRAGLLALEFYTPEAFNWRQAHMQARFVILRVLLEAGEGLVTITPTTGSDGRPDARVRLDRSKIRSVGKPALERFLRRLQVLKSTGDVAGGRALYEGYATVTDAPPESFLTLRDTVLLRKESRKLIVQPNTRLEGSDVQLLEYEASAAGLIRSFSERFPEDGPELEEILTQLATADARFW
Procedure: (§1) The enzymatic activities of the wild-type enzyme and the active smFRET construct (still containing residue Glu-451) were determined using a fluorometric assay, which measures the release of β-naphthylamine upon cleavage of the synthetic substrate Arg-Arg-β-naphthylamide (excitation at 320 nm and emission at 420 nm)[41]. Kinetic parameters were determined at 37 °C in 50mM Tris-HCl buffer pH 8.0, containing 100 mM NaCl. The protein concentrations were 20 pM (wild-type enzyme) and 50 pM (smFRET construct). The substrate concentration was varied from 1 μM to 200 μM. The initial rate of fluorescence increase was monitored continuously for 5 min and was converted into the velocity of the reaction using a calibration curve for β-naphthylamine. Non-linear regression using the program GraphPad Prism (www.graphpad.com) yielded the values for vmax and KM.

[2] = target: T2, hDPP III, wild-type enzyme (Homo sapiens, UniProt Q9NY33); assay: Fluorometric activity assay, release of β-naphthylamine, wild-type enzyme; type: biochemical; settings: wild-type enzyme 20 pM; substrate 1 μM to 200 μM; 37 °C, 50 mM Tris-HCl pH 8.0, 100 mM NaCl; fluorescence ex 320 nm, em 420 nm
T2 sequence (Q9NY33 1-737): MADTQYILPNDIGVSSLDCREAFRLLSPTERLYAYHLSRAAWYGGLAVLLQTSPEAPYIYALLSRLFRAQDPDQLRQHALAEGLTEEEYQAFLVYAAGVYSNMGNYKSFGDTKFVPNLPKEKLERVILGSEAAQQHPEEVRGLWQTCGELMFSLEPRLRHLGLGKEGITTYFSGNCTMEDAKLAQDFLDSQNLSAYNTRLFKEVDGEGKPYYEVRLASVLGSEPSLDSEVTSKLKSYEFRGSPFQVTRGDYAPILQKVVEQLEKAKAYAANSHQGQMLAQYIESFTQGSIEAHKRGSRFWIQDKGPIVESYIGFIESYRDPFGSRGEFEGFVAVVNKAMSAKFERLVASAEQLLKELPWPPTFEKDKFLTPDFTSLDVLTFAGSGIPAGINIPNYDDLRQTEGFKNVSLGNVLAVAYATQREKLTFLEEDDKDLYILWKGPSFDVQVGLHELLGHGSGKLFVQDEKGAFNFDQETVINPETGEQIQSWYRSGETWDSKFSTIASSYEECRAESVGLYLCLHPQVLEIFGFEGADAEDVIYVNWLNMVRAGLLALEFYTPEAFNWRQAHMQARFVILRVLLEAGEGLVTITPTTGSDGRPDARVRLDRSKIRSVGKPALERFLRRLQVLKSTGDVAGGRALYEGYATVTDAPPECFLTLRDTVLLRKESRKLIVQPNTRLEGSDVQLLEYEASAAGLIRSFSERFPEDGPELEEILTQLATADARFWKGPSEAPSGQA
Procedure: as §1

rat DPP III = tested on: rat DPP III; set-up: method as in PMID 12895665; settings: cited from earlier work
human DPP III = settings: cited from earlier work
hDPP III [3] = settings: cited from earlier work
Text: The octapeptide angiotensin-II (DRVYIHPF) is a potent vasoconstrictor and is involved in regulating mammalian blood pressure.

[4] = tested on: partially purified DPP III from monkey brain; set-up: method as in PMID 10822105; settings: cited from earlier work
hDPP III [5] = tested on: hDPP III; set-up: method as in 2 sources, ref 22 = [22]; PMID 10822105; doi:10.1016/s0196-9781(00)00174-1; Yamamoto Y. , Hashimoto J. , Shimamura M. , Yamaguchi T. & Hazato T. Characterization of tynorphin, a potent endogenous inhibitor of dipeptidyl peptidaseIII . Peptides 21 , 503 – 508 ( 2000 ). 1082210 ||| ref 1 = [1]; PMID 21794094; doi:10.1111/j.1742-4658.2011.08275.x; Prajapati S. C. & Chauhan S. S. Dipeptidyl peptidase III: a multifaceted oligopeptide N-end cutter . FEBS J. 278 , 3256 – 3276 ( 2011 ). 21794094 10.1111/j.1742-4658.2011.08275.x; settings: cited from earlier work
inactive hDPP3 variant = target: inactive hDPP3 variant; set-up: method as in PMID 22493238; settings: cited from earlier work
[6] = target: hDPP3(1-726) E451A, inactive hDPP III variant used for ITC (human) (UniProt Q9NY33); assay: ITC; 800 μM angiotensin II in the syringe into 40 μM enzyme in the cell; 25 °C; 50 mM Tris-HCl pH 8.0, 100 mM NaCl; one-binding-site model
[7] = target: T3, human dipeptidyl peptidase III (1-726), inactive E451A variant, smFRET construct (C19S, C519S, C654S, E207C, … (human, UniProt Q9NY33 1-726, E451A | C19 exchanged to serine | C519 exchanged to serine | C654 exchanged to …)); assay: crystal structure; co-crystallisation; protein 8 mg mL^-1, protein:ligand about 1:30, sitting drop vapour diffusion at 20 °C, microseeding with crystals of the angiotensin II complex; settings: both partners purified
T3 construct: human dipeptidyl peptidase III, residues 1-726 (lacks 11 C-terminal residues), with E451A and five surface exchanges made for smFRET; Vector pET28-MHL; His6-tag removed with TEV protease, so residues of the cleavage site may remain at the N-terminus; also called hDPP III; hDPP3; source: E. coli BL21-CodonPlus (DE3) RIL, purified (Ni-NTA, ResourceQ anion exchange, TEV cleavage, Superdex 200); not …
T3 sequence (looked up): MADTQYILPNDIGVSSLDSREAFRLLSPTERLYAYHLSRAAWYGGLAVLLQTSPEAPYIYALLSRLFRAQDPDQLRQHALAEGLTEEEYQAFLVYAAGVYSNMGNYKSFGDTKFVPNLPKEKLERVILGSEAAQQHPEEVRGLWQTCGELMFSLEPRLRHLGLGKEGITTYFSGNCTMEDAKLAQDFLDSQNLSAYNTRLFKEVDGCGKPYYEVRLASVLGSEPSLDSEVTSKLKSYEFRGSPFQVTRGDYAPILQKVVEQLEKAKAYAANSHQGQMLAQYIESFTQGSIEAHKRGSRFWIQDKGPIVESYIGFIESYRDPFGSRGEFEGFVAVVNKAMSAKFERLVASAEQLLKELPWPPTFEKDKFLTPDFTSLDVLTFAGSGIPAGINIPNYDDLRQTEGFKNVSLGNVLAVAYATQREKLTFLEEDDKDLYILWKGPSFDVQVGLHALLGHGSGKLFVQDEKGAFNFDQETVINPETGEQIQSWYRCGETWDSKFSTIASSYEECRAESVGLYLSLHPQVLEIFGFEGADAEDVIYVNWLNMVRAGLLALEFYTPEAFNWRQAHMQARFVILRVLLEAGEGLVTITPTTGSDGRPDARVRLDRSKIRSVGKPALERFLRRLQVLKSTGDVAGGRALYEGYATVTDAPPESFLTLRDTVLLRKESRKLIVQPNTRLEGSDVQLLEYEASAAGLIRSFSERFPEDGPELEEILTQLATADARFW

## Arg-Arg-β-naphthylamide [synthetic substrate releasing β-naphthylamine upon cleavage]
[1]
  Km: 30 µM
  kcat: 28 s⁻¹
[2]
  Km: 24 µM
  kcat: 24 s⁻¹

## IVYPW
Rat DPP III; compared with tynorphin, presumably ref 23
  relative inhibitory strength (in words): a stronger inhibitor than tynorphin
Rat DPP III; rat DPP III
  inhibition (in words): nanomolar affinity
Human DPP III
  inhibition of the enzyme (in words): described as an inhibitor of the enzyme

## VVYPW [tynorphin, synthetic opioid peptide, a derivative of spinorphin]
hDPP III [3]
  character of binding (thermodynamic, in words): endothermic process driven by entropic changes
Human DPP III
  inhibition of human DPP III (in words): described as an inhibitor of human DPP III
[4]
  inhibition (in words): shown to inhibit partially purified DPP III from monkey brain
hDPP III [5]
  period over which the peptide appears to be hydrolysed: about 24 hours

## YGGFL [Leu-enkephalin, endogenous opioid neurotransmitter (YGGFL)]
hDPP III [5]
  cleavage by hDPP III (in words): shown to be cleaved by hDPP III
  in vitro substrate of hDPP III (in words): known in vitro substrates of hDPP III
Inactive hDPP3 variant
  Kd: 3600 nM

## YGGFM [Met-enkephalin, endogenous opioid neurotransmitter (YGGFM)]
hDPP III [5]
  cleavage by hDPP III (in words): shown to be cleaved by hDPP III
  in vitro substrate of hDPP III (in words): known in vitro substrates of hDPP III

## YPFF-NH2 [endomorphin-2, opioid peptide with amidated C-terminus]
hDPP III [5]
  in vitro substrate of hDPP III (in words): known in vitro substrates of hDPP III

## angiotensin-II (peptide)
[6]
  Kd: 1640 nM
  dH: 3.64 kcal/mol

B1: Met-enkephalin (peptide)
peptide: YGGFM
notes: Met-enkephalin, endogenous opioid pentapeptide cut from proenkephalin-A; also called YGGFM
[7]
  binding result: binds

B2: Leu-enkephalin (peptide)
peptide: YGGFL
notes: Leu-enkephalin, endogenous opioid pentapeptide cut from proenkephalin-A (also held in prodynorphin); also called YGGFL
[7]
  binding result: binds

B3: synthetic opioid peptide IVYPW (peptide)
peptide: IVYPW
notes: synthetic opioid peptide, similar to tynorphin (VVYPW), a derivative of spinorphin
[7]
  binding result: binds

— PMC4824452, “Substrate complexes of human dipeptidyl peptidase III reveal the mechanism of enzyme inhibition” (Scientific Reports, 2016)
